Consider ten compounds from ChEMBL document CHEMBL4304773, “Nitroimidazole-containing compounds and their antibacterial and antitubercular activities” (2019).

Converted amounts (≈) assume the structure as drawn.

The test system of test [1] is Staphylococcus epidermidis. Briefly: Antibacterial activity against methicillin-sensitive Staphylococcus epidermidis by two fold dilution method. In kind it is functional.
Test [2] has as its system Staphylococcus aureus. Briefly: Antibacterial activity against methicillin-sensitive Staphylococcus aureus by two fold dilution method. In kind it is functional.
Test [3] relates to Helicobacter pylori. The test is described as follows: Antibacterial activity against Helicobacter pylori clinical isolate assessed as zone of inhibition at 8 ug/disc. In kind it is functional. To be noted: read-out: IZ.
In test [4] the test system is Helicobacter pylori. Briefly: Antibacterial activity against metronidazole-resistant Helicobacter pylori. In kind it is functional.
The test system of test [5] is Clostridioides difficile. The test is described as follows: Antibacterial activity against Clostridium difficile 630 assessed as zone of inhibition at 2.5 ug/disc after 24 hrs. In kind it is functional. The note with it: Clostridioides difficile, 630, 24 h; read-out: IZ.
In test [6] the test system is Clostridioides difficile. The test is described as follows: Antibacterial activity against Clostridium difficile R20291 assessed as zone of inhibition at 2.5 ug/disc after 24 hrs. The note with it: read-out: IZ. The format is functional.
Test [7] relates to Helicobacter pylori. Briefly: Antibacterial activity against drug-resistant Helicobacter pylori assessed as zone of inhibition at 8 ug/disc. To be noted: read-out: IZ. The format is functional.
In test [8] the test system is Helicobacter pylori. The test is described as follows: Antibacterial activity against drug-sensitive Helicobacter pylori assessed as zone of inhibition at 8 ug/disc. In kind it is functional. To be noted: read-out: IZ.
Test [9] has as its system Clostridioides difficile. Briefly: Antibacterial activity against Clostridium difficile ATCC 43603 assessed as zone of inhibition at 2.5 ug/disc after 24 hrs. In kind it is functional. To be noted: ATCC 43603, 24 h, read-out: IZ.
Test [10] has as its system Enterococcus faecalis. Briefly: Potency index, ratio of chloramphenicol MIC to test compound MIC for Enterococcus faecalis. In kind it is functional.
The subject of test [11] is Staphylococcus epidermidis. The test is described as follows: Potency index, ratio of chloramphenicol MIC to test compound MIC for Staphylococcus epidermidis. The format is functional.
The subject of test [12] is Enterococcus faecalis. The test is described as follows: Antibacterial activity against Enterococcus faecalis. The format is functional.
In test [13] the test system is Staphylococcus epidermidis. The test is described as follows: Antibacterial activity against Staphylococcus epidermidis. The format is functional.
The subject of test [14] is Klebsiella pneumoniae. The test is described as follows: Antibacterial activity against Klebsiella pneumoniae ATCC 10031 after 18 hrs by two fold serial dilution. In kind it is functional. The note with it: ATCC 10031, 18 h.
Test [15] deals with Escherichia coli. The test is described as follows: Antibacterial activity against Escherichia coli ATCC 25922 after 24 hrs. In kind it is functional. The note with it: ATCC 25922, 24 h.
Test [16] relates to Pseudomonas aeruginosa. The test is described as follows: Antibacterial activity against Pseudomonas aeruginosa ATCC 27853 after 24 hrs. The format is functional. The note with it: ATCC 27853, 24 h.
Test [17] has as its system Staphylococcus aureus. Briefly: Antibacterial activity against methicillin-resistant Staphylococcus aureus after 24 hrs. In kind it is functional.
Test [18] relates to Pseudomonas aeruginosa. The test is described as follows: Antibacterial activity against Pseudomonas aeruginosa after 24 hrs. The format is functional.
The subject of test [19] is Escherichia coli. The test is described as follows: Antibacterial activity against drug-resistant Escherichia coli after 24 hrs. The format is functional.
The subject of test [20] is Staphylococcus epidermidis. The test is described as follows: Antibacterial activity against Staphylococcus epidermidis ATCC 12228 after 18 hrs by two fold serial dilution. The format is functional. The note with it: ATCC 12228, 18 h.
The test system of test [21] is Staphylococcus aureus. Briefly: Antibacterial activity against Staphylococcus aureus ATCC 29213 after 24 hrs. The format is functional. The note with it: ATCC 29213, 24 h.
Test [22] concerns Bacillus subtilis. The test is described as follows: Antibacterial activity against Bacillus subtilis PTCC 1023 after 18 hrs by two fold serial dilution. In kind it is functional. The note with it: PTCC 1023, 18 h.
The test system of test [23] is Staphylococcus aureus. Briefly: Antibacterial activity against Staphylococcus aureus ATCC 25923 after 24 hrs. To be noted: ATCC 25923, 24 h. The format is functional.
The test system of test [24] is Staphylococcus aureus. Briefly: Antibacterial activity against Staphylococcus aureus ATCC 6538 after 18 hrs by two fold serial dilution. To be noted: ATCC 6538, 18 h. In kind it is functional.
The test system of test [25] is Enterococcus faecalis. Briefly: Antibacterial activity against Enterococcus faecalis after 24 hrs. The format is functional.
Test [26] has as its system Escherichia coli. The test is described as follows: Antibacterial activity against Escherichia coli infected in mouse. In kind it is functional.
Test [27] deals with Klebsiella pneumoniae. The test is described as follows: Antibacterial activity against Klebsiella pneumoniae after 24 hrs. The format is functional.
Test [28] concerns Escherichia coli. The test is described as follows: Antibacterial activity against Escherichia coli ATCC 8739 after 18 hrs by two fold serial dilution. The format is functional. The note with it: ATCC 8739, 18 h.
Test [29] concerns Helicobacter pylori. Briefly: Antibacterial activity against metronidazole-resistant Helicobacter pylori clinical isolates. In kind it is functional.
Test [30] deals with Helicobacter pylori. Briefly: Potency index, ratio of metronidazole MIC90 to test compound MIC90 for metronidazole-resistant Helicobacter pylori. The format is functional.
Test [31] relates to Helicobacter pylori. Briefly: Antibacterial activity against Helicobacter pylori NCTC 11637. The format is functional.
For test [32], the system named is Helicobacter pylori. The test is described as follows: Antibacterial activity against Helicobacter pylori. In kind it is functional.
For test [33], the system named is Escherichia coli. Briefly: Potency index, ratio of norfloxacin MIC to test compound MIC for drug-resistant Escherichia coli. In kind it is functional.
The test system of test [34] is Escherichia coli. The test is described as follows: Antibacterial activity against Escherichia coli. In kind it is functional.
Test [35] concerns Pseudomonas aeruginosa. Briefly: Antibacterial activity against Pseudomonas aeruginosa. The format is functional.
In test [36] the test system is Bacillus subtilis. The test is described as follows: Antibacterial activity against Bacillus subtilis. In kind it is functional.
The test system of the next test is Salmonella typhimurium. The test is described as follows: Antibacterial activity against Salmonella typhimurium. The format is functional, Salmonella enterica subsp. enterica serovar Typhimurium. To be noted: Salmonella enterica.
The next test deals with Proteus. Briefly: Antibacterial activity against Proteus. The format is functional.
Test [37] concerns Staphylococcus aureus. The test is described as follows: Antibacterial activity against Staphylococcus aureus. The format is functional.

As usually defined, the MIC is the lowest concentration that inhibits growth of the organism. A high value points to a need for much substance. On to `COc1c(N2C[C@@H]3CCCN(C[C@@H](O)Cn4c([N+](=O)[O-])cnc4C)[C@@H]3C2)c(F)cc2c(=O)c(C(=O)O)cn(C3CC3)c12`, for which the MIC (in test [1]; with Staphylococcus aureus [2]) was 0.03 to 2 µg/mL (≈ 0.0513 to 3.42 µM) each time.
Broadly, the MIC90 is an inhibitory concentration at the 90% level, which refers to growth in some studies and to a panel of isolates in others. On to `Cc1ncc([N+](=O)[O-])n1CCO` [METRONIDAZOLE], for which the zone of inhibition at 8 µg/disc in the test on Helicobacter pylori [3] turned out to be 16.3 mm; in the test with Helicobacter pylori [7], 11 mm; with Helicobacter pylori [8] it was 18 mm. In the test on Helicobacter pylori [4], this compound returned an MIC90 above 32 µg/mL. Besides, the zone of inhibition at 2.5 µg/disc in the test on Clostridioides difficile [5], with Clostridioides difficile [6] and in the test on Clostridioides difficile [9] was 9 to 22 mm throughout.
Regarding `Cc1ncc([N+](=O)[O-])n1CCN1C(=O)S/C(=C\c2ccccc2)C1=O`, the Ratio with Enterococcus faecalis [10] was 8; in test [11], 2. The MIC (in the test on Enterococcus faecalis [12]; in test [13]) was 62.5 µg/mL (≈ 174 µM) each time.
Take `COc1c(N2CCNC(C)C2)c(F)cc2c(=O)c(C(=O)O)cn(C3CC3)c12` (configuration not stated) [GATIFLOXACIN]: the MIC (in test [1]; with Staphylococcus aureus [2]) was 0.06 to 16 µg/mL (≈ 0.16 to 42.6 µM) in each case.
For `C/C=C/c1nc(CS(=O)(=O)c2ccccc2)c([N+](=O)[O-])n1C`, the zone of inhibition at 2.5 µg/disc in the test on Clostridioides difficile [5], in the test on Clostridioides difficile [6] and in the test on Clostridioides difficile [9] was 13.5 to 24.5 mm throughout.
Broadly, the ED50 is the dose that gives a 50% effect, or the effect in half of the subjects. Regarding `CCn1cc(C(=O)O)c(=O)c2cc(F)c(N3CCNCC3)cc21` [NORFLOXACIN], the MIC against Klebsiella pneumoniae [14] is 0.13 to 1 µg/mL (≈ 0.407 to 3.13 µM); with Escherichia coli [15], 13 to 1600 µM (≈ 4.15 to 512 µg/mL); in the test with Pseudomonas aeruginosa [16], 13 to 1600 µM (≈ 4.15 to 512 µg/mL); in the test with Staphylococcus aureus [17], 13 to 1600 µM (≈ 4.15 to 512 µg/mL); with Pseudomonas aeruginosa [18], 13 to 1600 µM (≈ 4.15 to 512 µg/mL); against Escherichia coli [19] it was 100 µM (≈ 31.9 µg/mL). Moreover, the MIC in test [20] lay within 0.13 to 1 µg/mL (≈ 0.407 to 3.13 µM); against Staphylococcus aureus [21], 13 to 1600 µM (≈ 4.15 to 512 µg/mL); in the test on Bacillus subtilis [22], 0.13 to 1 µg/mL (≈ 0.407 to 3.13 µM); with Staphylococcus aureus [23], 13 to 1600 µM (≈ 4.15 to 512 µg/mL); in the test with Staphylococcus aureus [24], 0.13 to 1 µg/mL (≈ 0.407 to 3.13 µM); in the test on Enterococcus faecalis [25] it was 13 to 1600 µM (≈ 4.15 to 512 µg/mL). Moreover, the MIC in the test with Klebsiella pneumoniae [27] lay within 13 to 1600 µM (≈ 4.15 to 512 µg/mL); with Escherichia coli [28], 0.13 to 1 µg/mL (≈ 0.407 to 3.13 µM). In the test with Escherichia coli [26], this compound showed an ED50 of 5.6 mg/kg.
In the case of `Cc1ncc([N+](=O)[O-])n1CCNCc1no[n+]([O-])c1C#N`, the minimum inhibitory concentration (MIC) is 0.25 to 1 µg/mL (≈ 0.853 to 3.41 µM) against Helicobacter pylori [4] and 5 µg/mL (≈ 17.1 µM) against Helicobacter pylori [32]. In addition, the MIC90 against Helicobacter pylori [4] is 1 µg/mL (≈ 3.41 µM); against Helicobacter pylori [29], 0.5 to 32 µg/mL (≈ 1.71 to 109 µM); in the test on Helicobacter pylori [31] it was 0.5 to 32 µg/mL (≈ 1.71 to 109 µM); with Helicobacter pylori [32], 0.5 µg/mL (≈ 1.71 µM). The Ratio in the test with Helicobacter pylori [30] is given as above 32.
As to `COc1cc(/C=C(\C#N)n2cc([N+](=O)[O-])nc2C)c2c(c1OCc1ccccc1F)CN1CCc3cc4c(cc3C1C2)OCO4` (configuration not stated), the MIC was 3 to 1020 µM (≈ 1.83 to 622 µg/mL) in the test on Escherichia coli [15]; 3 to 1020 µM (≈ 1.83 to 622 µg/mL) against Pseudomonas aeruginosa [16]; 3 to 1020 µM (≈ 1.83 to 622 µg/mL) with Staphylococcus aureus [17]; 3 to 1020 µM (≈ 1.83 to 622 µg/mL) against Pseudomonas aeruginosa [18]; 3 µM (≈ 1.83 µg/mL) in the test with Escherichia coli [19]; 3 to 1020 µM (≈ 1.83 to 622 µg/mL) against Staphylococcus aureus [21]. Moreover, the MIC in the test on Staphylococcus aureus [23], against Enterococcus faecalis [25] and against Klebsiella pneumoniae [27] was 3 to 1020 µM (≈ 1.83 to 622 µg/mL) throughout. The Ratio in the test with Escherichia coli [33] was 33.
Take `CC(=O)N(Cc1ccc(Cl)cc1Cl)c1ccc(S(=O)(=O)NCCCn2c([N+](=O)[O-])cnc2C)cc1`: the MIC with Escherichia coli [34], with Pseudomonas aeruginosa [35], against Bacillus subtilis [36], in the test on Salmonella typhimurium, with Proteus and against Staphylococcus aureus [37] was 16 to 64 µg/mL (≈ 29.6 to 118 µM) throughout.
For the compound `Cc1ncc([N+](=O)[O-])n1CCCNS(=O)(=O)c1ccc(NCc2ccc(Cl)cc2Cl)cc1`, the MIC with Escherichia coli [34], against Pseudomonas aeruginosa [35], against Bacillus subtilis [36], in the test on Salmonella typhimurium, in the test on Proteus and with Staphylococcus aureus [37] was 64 to 128 µg/mL (≈ 128 to 257 µM) each time.
